Test results taken from patent US11964988B2, “Fused heterocyclic compounds as RET kinase inhibitors” (ARRAY BIOPHARMA INC., priority 2018, dated 2024).
Numbering of substitutions follows the chain as printed.

Key:
[1] = target: RET kinase Wild Type (Homo sapiens, UniProt P07949); assay: biochemical;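 note: HTRF kinase activity assay on RET enzyme, 1 h reaction at 22 °C, dual-wavelength readout as percent of control, DMSO-only wells as 100%, pre-quenched reactions as 0%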
[2] = target: G810S mutant RET kinase (Homo sapiens, UniProt P07949, G810S); assay: biochemical;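 note: HTRF KinEASE-TK kinase assay with recombinant enzyme, 1 h at 22 °C, dual-wavelength ratiometric read-out, percent of control (DMSO-only = 100, pre-quenched reaction = 0)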
Sequence of G810S mutant RET kinase (P07949 29-1114 G810S): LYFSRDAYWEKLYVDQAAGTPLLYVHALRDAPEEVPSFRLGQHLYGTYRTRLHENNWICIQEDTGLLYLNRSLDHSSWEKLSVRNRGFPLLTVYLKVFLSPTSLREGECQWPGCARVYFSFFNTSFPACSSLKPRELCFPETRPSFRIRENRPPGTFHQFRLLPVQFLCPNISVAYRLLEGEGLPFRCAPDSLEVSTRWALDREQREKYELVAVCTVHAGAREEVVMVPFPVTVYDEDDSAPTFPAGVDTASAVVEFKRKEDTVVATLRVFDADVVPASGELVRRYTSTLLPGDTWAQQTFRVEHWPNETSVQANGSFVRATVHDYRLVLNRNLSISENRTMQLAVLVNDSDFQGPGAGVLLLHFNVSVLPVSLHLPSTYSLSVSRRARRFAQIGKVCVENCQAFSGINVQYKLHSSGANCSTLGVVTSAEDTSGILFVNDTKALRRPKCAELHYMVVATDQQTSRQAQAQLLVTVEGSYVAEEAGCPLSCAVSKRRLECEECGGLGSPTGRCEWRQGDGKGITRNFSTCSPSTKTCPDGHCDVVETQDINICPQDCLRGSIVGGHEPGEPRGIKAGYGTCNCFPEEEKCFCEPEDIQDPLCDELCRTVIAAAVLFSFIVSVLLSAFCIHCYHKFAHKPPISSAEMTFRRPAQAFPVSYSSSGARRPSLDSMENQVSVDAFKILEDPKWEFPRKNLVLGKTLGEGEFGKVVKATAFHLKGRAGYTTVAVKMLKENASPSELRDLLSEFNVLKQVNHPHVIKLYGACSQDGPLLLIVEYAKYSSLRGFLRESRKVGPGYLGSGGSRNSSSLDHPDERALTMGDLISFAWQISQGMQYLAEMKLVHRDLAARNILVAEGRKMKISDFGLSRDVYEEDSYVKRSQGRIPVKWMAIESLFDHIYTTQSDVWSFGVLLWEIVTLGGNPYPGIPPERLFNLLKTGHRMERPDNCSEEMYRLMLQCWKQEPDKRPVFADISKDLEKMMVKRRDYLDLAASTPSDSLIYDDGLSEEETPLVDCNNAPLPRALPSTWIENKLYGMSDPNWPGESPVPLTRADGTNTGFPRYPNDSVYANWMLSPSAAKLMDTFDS

[3] = target: T1, HEK-293 cells expressing a Kif5b-RET fusion protein (Homo sapiens, UniProt P07949); assay: RET Cell Assay (phospho-RET Tyr1062); assay type: cell-based; conditions: HEK-293 Kif5b-RET, 1 hour incubation, phospho-RET normalized to GAPDH; read-out: KIF5B-RET pTYR1062 Cell IC50
T1 construct: KIF5B (N-terminal portion incl. coiled-coil); expressed in transfected cells; host or cells: HEK-293; the other entry of the earlier key: KIF5B (P33176, Kinesin-1 heavy chain)
T1 sequence (P07949 713-1063 limits assumed): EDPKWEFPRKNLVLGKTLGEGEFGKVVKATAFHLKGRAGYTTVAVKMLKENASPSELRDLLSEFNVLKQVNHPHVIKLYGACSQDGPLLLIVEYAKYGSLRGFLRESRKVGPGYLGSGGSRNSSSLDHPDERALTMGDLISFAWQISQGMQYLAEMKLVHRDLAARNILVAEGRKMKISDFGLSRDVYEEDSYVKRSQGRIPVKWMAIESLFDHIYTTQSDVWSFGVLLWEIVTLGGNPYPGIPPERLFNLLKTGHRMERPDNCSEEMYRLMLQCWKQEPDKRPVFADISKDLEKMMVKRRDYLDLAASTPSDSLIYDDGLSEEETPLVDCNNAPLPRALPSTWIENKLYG
How it was run: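 Kif5b-RET HEK-293 cells treated 1 hour with compound in DMEM (0.5% DMSO final), then fixed and immunostained for phospho-RET Tyr1062, normalized to GAPDH by infrared fluorescence. IC50 where the 4-parameter logistic fit of POC crosses 50.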

[4] = target: T2, HEK-293 cells expressing a G810S mutant RET Kif5b-RET fusion protein (Homo sapiens, UniProt P07949, G810S); assay: RET G810S Mutant Cell Assay (phospho-RET Tyr1062); assay type: cell-based; conditions: HEK-293 Kif5b-RET G810S, 1 hour incubation, phospho-RET normalized to GAPDH
T2 construct: KIF5B (N-terminal portion incl. coiled-coil); expressed in transfected cells; host or cells: HEK-293
T2 sequence (P07949 713-1063 G810S limits assumed): T1 sequence (P07949 713-1063 limits assumed) with G98S
How it was run: (§1)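 Engineered HEK-293 cells were treated 1 h with compound in DMEM, 0.5% DMSO final, then fixed, permeabilized and immunostained for phospho-RET Tyr1062 and GAPDH. In-cell fluorescence pRET signal was normalized to GAPDH; IC50 taken from a 4-parameter logistic fit of percent of control at 50 POC.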

[5] = target: G810R mutant RET kinase (Homo sapiens, UniProt P07949, G810R); assay: biochemical;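 note: HTRF KinEASE-TK enzymatic assay with 1 nM recombinant RET G810R, 1 h at 22 °C, dual-wavelength ratiometric readout, 100% control without compound, 0% from pre-quenched reactions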
Sequence of G810R mutant RET kinase (P07949 29-1114 G810R): as the sequence (P07949 29-1114 G810S) above, with S782R counted along it

[6] = target: RET kinase V804M (Homo sapiens, UniProt P07949, V804M); assay: RET Enzyme Assay (CisBio HTRF KinEASE-TK), V804M; assay type: biochemical; conditions: read-out: RET V804M Enz FRET IC50
Sequence of RET kinase V804M (P07949 29-1114 V804M): as the sequence (P07949 29-1114 G810S) above, with V776M, S782G counted along it

[7] = target: T3, HEK-293 cells expressing a G810R mutant RET Kif5b-RET fusion protein (Homo sapiens, UniProt P07949, G810R); assay: RET G810R Mutant Cell Assay (phospho-RET Tyr1062); assay type: cell-based; conditions: HEK-293 Kif5b-RET G810R, 1 hour incubation, phospho-RET normalized to GAPDH
T3 construct: KIF5B (N-terminal portion incl. coiled-coil); expressed in transfected cells; host or cells: HEK-293; the other entry of the earlier key: KIF5B (P33176, Kinesin-1 heavy chain)
T3 sequence (P07949 713-1063 G810R limits assumed): T1 sequence (P07949 713-1063 limits assumed) with G98R
How it was run: as §1

Sequence of RET kinase Wild Type (P07949 29-1114): as the sequence (P07949 29-1114 G810S) above, with S782G counted along it

| SMILES | IC50 [1] | IC50 [2] | IC50 [3] | IC50 [4] | IC50 [5] | IC50 [6] | IC50 [7] |
| --- | --- | --- | --- | --- | --- | --- | --- |
| CC1Cc2c(c3c(N)ncnc3n2C(C)C)-c2noc(C3CC3)c2C1O (centres unmarked) [Example 61, 11-amino-3-cyclopropyl-7-isopropyl-5-methyl-4,5,6,7-tetrahydroisoxazolo[4″,3″:6′,7′]cyclohepta[1′,2′:4,5]pyrrolo[2,3-d]pyrimidin-4-ol] | 31 nM | 58 nM | 33 nM | 101 nM | 89 nM | 136 nM | 281 nM |
| Cc1ccc2c(c1)cc1n2C(=O)NCc2c-1c1c(N)ncnc1n2C(C)C [Example 81, 1-amino-5-isopropyl-12-methyl-6,7-dihydropyrimido[5″,4″:4′,5′]pyrrolo[2′,3′: 5,6][1,3]diazepino[1,7-a]indol-8(5H)-one] | 19 nM | 52 nM | 11 nM | 39 nM | 94 nM | 5490 nM | 76 nM |
| CC(C)n1c2c(c3c(N)ncnc31)-c1cc3ccc(C(=O)NC4CC4)cc3n1CCC2 [Example 87, 1-Amino-N-cyclopropyl-5-isopropyl-5,6,7,8-tetrahydropyrimido[5″,4″:4′,5′]pyrrolo[3′,2′:3,4]azepino[1,2-a]indole-11-carboxamide] | 47 nM | 204 nM | 32 nM | 71 nM | 202 nM | 5780 nM | 89 nM |
| CC(C)n1c2c(c3c(N)ncnc31)-c1cc3ccc(C(=O)Nc4ccn(CCN5CCOCC5)n4)cc3n1CCC2 [Example 88, 1-amino-5-isopropyl-N-(1-(2-morpholinoethyl)-1H-pyrazol-3-yl)-5,6,7,8-tetrahydropyrimido[5″,4″:4′,5′]pyrrolo[3′,2′: 3,4]azepino[1,2-a]indole-11-carboxamide] | 62 nM | 297 nM | 50 nM | 44 nM | 288 nM | 6260 nM | 53 nM |
| CC(C)n1c2c(c3c(N)ncnc31)-c1cc3ccc(C(=O)NC4(C)CC4)cc3n1CCC2 [Example 97, 1-amino-5-isopropyl-N-(1-methylcyclopropyl)-5,6,7,8-tetrahydropyrimido[5″,4″:4′,5′]pyrrolo[3′,2′: 3,4]azepino[1,2-a]indole-11-carboxamide] | 73 nM | 457 nM | 26 nM | 47 nM | 478 nM | 4460 nM | 47 nM |
| Nc1ncnc2c1c1c(n2-c2ccccc2)CCC(O)c2c-1noc2C1CC1 (centres unmarked) [Example 118, 11-Amino-3-cyclopropyl-7-phenyl-4,5,6,7-tetrahydroisoxazolo[4″,3″:6′,7′]cyclohepta[1′,2′:4,5]pyrrolo[2,3-d]pyrimidin-4-ol 2,2,2-trifluoroacetate] | 131 nM | 75 nM | 125 nM | 108 nM | 80 nM | 99 nM | 206 nM |
| Nc1ncnc2c1c1c(n2C2CCCC2)CCC(O)c2c-1noc2C1CC1 (centres unmarked) [Example 120, 11-Amino-7-cyclopentyl-3-cyclopropyl-4,5,6,7-tetrahydroisoxazolo[4″,3″:6′,7′]cyclohepta[1′,2′:4,5]pyrrolo[2,3-d]pyrimidin-4-ol] | 10 nM | 24 nM | 15 nM | 33 nM | 74 nM | 20 nM | 35 nM |
| Nc1ncnc2c1c1c(n2C2CCC(O)C2)CCC(O)c2c-1noc2C1CC1 (centres unmarked) [Example 129, 11-Amino-3-cyclopropyl-7-(3-hydroxycyclopentyl)-4,5,6,7-tetrahydroisoxazolo[4″,3″:6′,7′]cyclohepta[1′,2′:4,5]pyrrolo[2,3-d]pyrimidin-4-ol] | 8 nM | 19 nM | 18 nM | 65 nM | 23 nM | 21 nM | 46 nM |
